In paper PMC5152921, “Evolutionary and Functional Diversification of the Vitamin D Receptor-Lithocholic Acid Partnership” (PLoS ONE, 2016):

Target: T1, Zebrafish VDRβ (Danio rerio, UniProt Q1L673)
T1 sequence (Q1L673 1-422): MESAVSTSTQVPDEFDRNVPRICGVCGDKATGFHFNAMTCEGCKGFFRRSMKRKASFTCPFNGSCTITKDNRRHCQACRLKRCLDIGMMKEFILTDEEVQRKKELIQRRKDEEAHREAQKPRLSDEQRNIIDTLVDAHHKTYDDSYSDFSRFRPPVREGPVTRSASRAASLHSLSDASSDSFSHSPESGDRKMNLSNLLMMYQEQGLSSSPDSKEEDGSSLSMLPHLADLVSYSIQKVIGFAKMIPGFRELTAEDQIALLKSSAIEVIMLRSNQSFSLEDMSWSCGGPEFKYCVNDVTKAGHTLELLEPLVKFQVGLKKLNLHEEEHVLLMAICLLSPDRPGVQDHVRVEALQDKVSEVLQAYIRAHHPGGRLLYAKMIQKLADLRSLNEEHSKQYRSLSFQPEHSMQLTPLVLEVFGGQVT
Experiment: Competitive ligand binding assay ([3H]-1,25D3 displacement)
Design: 89.7 ng/well of full-length pSG5-VDR was co-transfected; expressed in transfected cells; host or cells: COS7
Conditions: lysate with VDR and human RXRWT; 4 nM [3H]-1,25D3; 18 hours at 4°C; Cheng-Prusoff; mean ± SEM
Procedure: Recombinant VDR and human RXRWT lysates were prepared from transfected COS7 cells (American Type Culture Collection #CRL-1651) as described in detail previously. Lysates were diluted 10-fold in ice-cold assay buffer (10 mM Tris HCl, 150 mM KCl, 1 mM EDTA, 0.3 mM ZnCl2, 5 mM DTT, and 1x protease inhibitor cocktail (100 μM AEBSF, 80 nM aprotinin, 5 μM bestatin, 1.5 μM E-64 (for cysteine proteases), 2 μM leupeptin, 1 μM pepstatin A), pH 7.5). […] Reactions were shaken to mix and incubated for 18 hours at 4°C. Bound and free ligand were separated with the addition of 80 μL of ice-cold separation buffer (2.5% (w/v) activated charcoal, 0.5% (w/v) dextran, 100 mM Na2HPO4, 39 mM NaH2PO4, 150 mM NaCl, 15 mM NaN3, 10% gelatin, pH 7.0), and incubated at 4°C for 15 minutes with shaking every 5 minutes. Reactions were centrifuged at 5,000 x g for 5 minutes at 4°C, and 200 μL of the supernatant containing the VDR-bound ligands was removed for scintillation counting.
Total binding was determined using lysate from cells transfected with VDR, and nonspecific binding was determined using lysate from cells transfected with the empty pSG5 vector. Specific binding was determined by subtracting non-specific binding counts from the total binding counts.

C[C@H](CCC(=O)O)[C@H]1CC[C@H]2[C@@H]3CC[C@@H]4C[C@H](O)CC[C@]4(C)[C@H]3CC[C@]12C [LCA, 5β-cholanic acid-3α-ol]
Ki: 6.7 ± 1.9 µM
